For 2 compounds, Kd results are on record in publication PMC3701073, “The Mode of Inhibitor Binding to Peptidyl-tRNA Hydrolase: Binding Studies and Structure Determination of Unbound and Bound Peptidyl-tRNA Hydrolase from Acinetobacter baumannii” (PLoS ONE, 2013).

SMILES strings stand for the structures. pKd: −log10 of the molar value.

For orientation: pKd means −log10 of the Kd, conventionally taken in molar units. Higher therefore signals a low Kd.

The target of the test is T1, peptidyl-tRNA hydrolase from Acinetobacter baumannii (AbPth) (Acinetobacter baumannii, UniProt D0C9L6).
T1 construct: gene pth; full length, 193 residues (Met1-Ala193), N-terminal 6xHis tag (pET-28a, NdeI/XhoI; cleavage not mentioned), E. coli BL21(DE3)
T1 sequence (D0C9L6 1-193): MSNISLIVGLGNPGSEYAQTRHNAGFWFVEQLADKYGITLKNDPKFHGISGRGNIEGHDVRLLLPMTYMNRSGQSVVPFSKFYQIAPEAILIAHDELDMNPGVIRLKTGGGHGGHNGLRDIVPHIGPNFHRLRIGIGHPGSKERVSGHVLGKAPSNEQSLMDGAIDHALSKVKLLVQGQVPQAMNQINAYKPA
Description: intrinsic fluorescence quenching (Scatchard). It counts as binding.

In turn, `O=c1ccn([C@@H]2O[C@H](CO)[C@@H](O)[C@H]2O)c(=O)[nH]1` [uridine] gave a negative-log Kd (pKd) of about 8.68.
`Nc1ccn([C@@H]2O[C@H](CO)[C@@H](O)[C@H]2O)c(=O)n1` [cytidine]: the pKd was 8.32.
